# Test results from patent US11357759B2, “Composition including ADAM9 inhibitor and the use thereof” (China Medical University, priority 2017, dated 2022).
# Legend:
# recombinant human ADAM9 = molecular target: T1, recombinant human ADAM9 (Homo sapiens, UniProt Q13443); experiment: ADAM9 enzymatic activity, ELISA system with fluorogenic peptide substrate; type: biochemical
# T1 construct: purchased R&D system
# T1 sequence (Q13443 29-819): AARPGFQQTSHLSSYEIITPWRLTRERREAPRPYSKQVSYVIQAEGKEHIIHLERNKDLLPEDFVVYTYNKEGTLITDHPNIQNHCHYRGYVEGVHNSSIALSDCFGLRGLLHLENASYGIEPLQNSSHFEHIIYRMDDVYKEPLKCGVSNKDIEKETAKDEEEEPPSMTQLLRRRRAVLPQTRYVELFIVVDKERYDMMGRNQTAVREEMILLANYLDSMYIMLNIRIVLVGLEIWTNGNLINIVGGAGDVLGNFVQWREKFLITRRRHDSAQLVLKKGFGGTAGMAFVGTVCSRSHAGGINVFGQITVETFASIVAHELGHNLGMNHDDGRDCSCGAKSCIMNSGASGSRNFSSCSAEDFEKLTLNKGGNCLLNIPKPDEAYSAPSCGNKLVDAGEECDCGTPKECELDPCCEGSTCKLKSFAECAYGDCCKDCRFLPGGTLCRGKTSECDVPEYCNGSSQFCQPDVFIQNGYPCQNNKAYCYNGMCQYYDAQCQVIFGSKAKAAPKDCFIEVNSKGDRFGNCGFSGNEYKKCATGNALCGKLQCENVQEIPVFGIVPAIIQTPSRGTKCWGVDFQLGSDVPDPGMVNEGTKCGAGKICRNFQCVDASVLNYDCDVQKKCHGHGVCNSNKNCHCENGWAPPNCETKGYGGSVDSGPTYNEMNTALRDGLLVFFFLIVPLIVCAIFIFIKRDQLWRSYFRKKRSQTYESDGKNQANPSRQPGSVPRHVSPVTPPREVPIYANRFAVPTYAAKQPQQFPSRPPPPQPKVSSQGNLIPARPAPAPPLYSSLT
# Method: To measure the efficacy of ADAM9 inhibitors in suppression of ADAM9 enzymatic activity, we established an ELISA system using recombinant human ADAM9 and a fluorogenic peptide substrate (R&D system). Broad-spectrum metalloprotease inhibitor BB-94 was included as a positive control. […] To evaluate the specificity of ADAM9 inhibitors, we performed a migration inhibition assay in control (shGFP) and ADAM9 knockdown (shADAM9) lung cancer cells in the presence of 25 μM of each compound. […] To ensure the generality of the compounds in blocking anoikis-resistance of cancer cells, we determined the IC50 of representative compounds for anoikis (anchorage-free induced apoptosis) in cancer cell lines and leukocytes in anchorage-free culture conditions. […] Plating efficiency of Bm7 treated with 20 μM ADAM9 inhibitor and TC1 cells treated with 10 μM ADAM9 inhibitor was shown. Control and ADAM9 knockout (KO) TC1 cells were treated with ADAM9 inhibitor for 24 hours and then stained with annexin V and PI. The apoptotic cells (Annexin V positive cells) are indicated as the percentage of gated cells from three independent experiments with mean±SD.
# [1] = test system: lung cancer cells in suspension culture; experiment: Cytotoxicity of lung cancer cells in suspension culture; type: cell-based
# Excerpt: The representative derivatives can reduce CDCP1 expression.
# ADAM17 = ADAM17 (Homo sapiens, UniProt P78536); experiment: ADAM17 inhibition; type: biochemical
# Sequence of ADAM17 (P78536 215-824, species assumed): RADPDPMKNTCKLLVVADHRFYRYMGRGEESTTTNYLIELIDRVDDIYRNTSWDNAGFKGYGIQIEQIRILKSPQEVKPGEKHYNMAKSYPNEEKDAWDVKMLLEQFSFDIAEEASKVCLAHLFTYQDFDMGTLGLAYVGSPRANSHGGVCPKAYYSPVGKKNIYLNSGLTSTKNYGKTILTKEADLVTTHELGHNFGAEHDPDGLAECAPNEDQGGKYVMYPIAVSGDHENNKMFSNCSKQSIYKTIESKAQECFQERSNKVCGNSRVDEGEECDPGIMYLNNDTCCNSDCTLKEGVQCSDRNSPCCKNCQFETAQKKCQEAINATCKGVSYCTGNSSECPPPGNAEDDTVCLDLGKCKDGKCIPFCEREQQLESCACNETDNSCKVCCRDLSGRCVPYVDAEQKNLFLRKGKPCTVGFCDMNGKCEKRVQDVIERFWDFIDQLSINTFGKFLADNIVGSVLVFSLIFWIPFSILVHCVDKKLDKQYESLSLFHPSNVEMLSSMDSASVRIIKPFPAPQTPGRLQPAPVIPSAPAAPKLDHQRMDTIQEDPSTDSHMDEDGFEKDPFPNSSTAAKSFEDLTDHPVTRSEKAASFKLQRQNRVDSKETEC
# 4T1-luc cells = experiment: 4T1-luc breast tumor model, adjuvant therapy after surgery; type: in vivo; settings: for mice with no relapse: adjuvant after surgery, 12W0271 10 mg/kg s.c. (over 333 days), doxorubicin 1 mg/kg i.p., 12 times
# Method: To compare the therapeutic effect of the inhibitors to chemotherapy agent doxorubicin in breast cancer treatment, we treated mice with 12W0271 or doxorubicin as adjuvant therapy after surgery of primary breast tumors. Balb/c mice received mammary fat pad injection of 5×10^4 4T1-luc cells. ADAM9 inhibitor was subcutaneously injected at 10 mg/kg once a day, 5 times per week for total 12 times. Doxorubicin was intraperitoneally injected at 1 mg/kg, once a day, 5 times per week for total 12 times. […] This breast tumor animal model is a clinically relevant triple negative breast cancer with poor outcome. In doxorubicin treatment, only one mouse (12.5%) had complete response with no relapse. Body weight of survived mice in doxorubicin and 12W0271 groups was determined on day 140. Dash line indicates average body weight in normal mice.
# TC1 lung cancer cells = experiment: Metastatic lung tumor model (intravenous TC1), combination with cisplatin; type: in vivo, mice; settings: ADAM9 inhibitor 4 mg/kg i.v., cisplatin 1.5 mg/kg i.p., twice a week for 4 weeks
# Method: To investigate the synergistic effect of chemotherapy drugs and ADAM9 inhibitors, we measured the cytotoxicity of individual and combination of cisplatin and 12W0271 for 3 days in TC1 cells by MTT. […] ADAM9 inhibitor (4 mg/kg) was intravenous injected twice a week for 4 weeks and cisplatin (1.5 mg/kg) was intraperitoneal injected twice a week for 4 weeks.
Structure (SMILES),ADAM9 activity (recombinant human ADAM9),"IC50 for the cytotoxicity of lung cancer cells, compared to compound 310 [1]",inhibitory effects in ADAM17 (ADAM17),mice with no relapse (4T1-luc cells) [%],"condition and body size of survived mice (4T1-luc cells; long term, 10 mg/kg s.c.)",survival time (TC1 lung cancer cells)
O=C(Nc1nc(CCN2C(=O)c3ccccc3C2=O)cs1)c1cc2ccccc2s1 [6X-0214],decreased ADAM9 activity to a similar extent in a dose-dependent manner,strongly reduced the IC50,no inhibitory effects,–,–,–
O=C1c2ccccc2C(=O)N1CCc1csc(Nc2nc(CCN3C(=O)c4ccccc4C3=O)cs2)n1 [12W-0271],decreased ADAM9 activity to a similar extent in a dose-dependent manner,strongly reduced the IC50,no inhibitory effects,37.5,healthy condition with bigger body size than the survival one in doxorubicin group,–
N.N.[Cl][Pt][Cl] [cisplatin],–,–,–,–,–,significantly prolonged survival time
"COc1cccc2c1C(=O)c1c(O)c3c(c(O)c1C2=O)C[C@@](O)(C(=O)CO)C[C@@H]3O[C@H]1C[C@H](N)[C@H](O)[C@H](C)O1 [doxorubicin, reference compound]",–,–,–,12.5,–,–
